The results in this text go back to PubChem BioAssay AID192 (DTP/NCI, 2004).

The assay relates to BDF1 mice, B16 melanoma ip, median survival T/C. The assay is described as follows: NCI In Vivo Anticancer Drug Screen. Data for tumor model B16 Melanoma (intraperitoneal) in B6D2F1 (BDF1) mice. Conditions: endpoint: median survival time, higher = longer survival. In outline: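 Read-out: survival or tumor size, given as treated/control ratio. Controls received vehicle only; animals bore transplantable tumors.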

The mark [1] stands for this setting: dose: 12.5 mg/kg/injection, schedule: Q01DX009 (ip), vehicle: Klucel (hydroxypropylcellulose) (HPC).
Setting [2] is: dose: 25.0 mg/kg/injection, schedule: Q01DX009 (ip), vehicle: Klucel (hydroxypropylcellulose) (HPC).
The mark [3] stands for this setting: dose: 50.0 mg/kg/injection, schedule: Q01DX009 (ip), vehicle: Klucel (hydroxypropylcellulose) (HPC).
Where [4] appears, read: dose: 100.0 mg/kg/injection, schedule: Q01DX009 (ip), vehicle: Klucel (hydroxypropylcellulose) (HPC).
Where [5] appears, read: dose: 200.0 mg/kg/injection, schedule: Q01DX009 (ip), vehicle: Klucel (hydroxypropylcellulose) (HPC).
Where [6] appears, read: dose: 100.0 mg/kg/injection, schedule: Q04DX003 (ip), vehicle: Klucel (hydroxypropylcellulose) (HPC).
[7] abbreviates: dose: 200.0 mg/kg/injection, schedule: Q04DX003 (ip), vehicle: Klucel (hydroxypropylcellulose) (HPC).
The mark [8] stands for this setting: dose: 400.0 mg/kg/injection, schedule: Q04DX003 (ip), vehicle: Klucel (hydroxypropylcellulose) (HPC).
Where [9] appears, read: dose: 400.0 mg/kg/injection, schedule: Q01DX009 (ip), vehicle: Klucel (hydroxypropylcellulose) (HPC).
[10] abbreviates: dose: 100.0 mg/kg/injection, schedule: Q01DX009 (ip), vehicle: saline with Tween-80.
The mark [11] stands for this setting: dose: 200.0 mg/kg/injection, schedule: Q01DX009 (ip), vehicle: saline with Tween-80.
[12] abbreviates: dose: 400.0 mg/kg/injection, schedule: Q01DX009 (ip), vehicle: saline with Tween-80.
Where [13] appears, read: dose: 25.0 mg/kg/injection, schedule: Q01DX009 (ip), vehicle: saline.
Setting [14] is: dose: 50.0 mg/kg/injection, schedule: Q01DX009 (ip), vehicle: saline.
Where [15] appears, read: dose: 100.0 mg/kg/injection, schedule: Q01DX009 (ip), vehicle: saline.
[16] abbreviates: dose: 25.0 mg/kg/injection, schedule: Q01DX009 (ip), vehicle: saline with Tween-80.
[17] abbreviates: dose: 50.0 mg/kg/injection, schedule: Q01DX009 (ip), vehicle: saline with Tween-80.
The mark [18] stands for this setting: dose: 10.0 mg/kg/injection, schedule: Q01DX009 (ip), vehicle: saline.
Setting [19] is: dose: 20.0 mg/kg/injection, schedule: Q01DX009 (ip), vehicle: saline.
Setting [20] is: dose: 40.0 mg/kg/injection, schedule: Q01DX009 (ip), vehicle: saline.
Setting [21] is: dose: 12.5 mg/kg/injection, schedule: Q01DX009 (ip), vehicle: saline.

Values joined by “and” are separate entries in the source; they are usually repeats but may differ in a detail not shown here. Equal entries are not always repeated. Inconclusive results and toxic doses are left out. Peptide text beside a SMILES is read from it.

As for `CC(=O)CCN1C(=O)c2ccccc2C1=O`, the T/C under setting [1] is 96 % of control; the T/C under setting [2] is 103 % of control; the T/C under setting [3] is 95 % of control (2×) and 101 % of control; the T/C under setting [4] is 99 % of control and 102 % of control; the T/C under setting [5] was 94 % of control and 98 % of control and 112 % of control.
`CCOC1=C(Br)C=CN(S(=O)(=O)c2ccc(C)cc2)c2ccc(OC)cc21`: the T/C is 96 % of control under setting [6], 90 % of control under setting [7] and 91 % of control under setting [8].
Consider `CCCCCCCCC(O)CCCCC` (stereo not drawn), for which the T/C was 100 % of control under setting [4], 94 % of control under setting [5] and 98 % of control under setting [9].
On to `NC1c2cc(Cl)ccc2-c2c(Cl)cc(Cl)cc21` (stereo not drawn), for which the T/C was 109 % of control under setting [10], 111 % of control under setting [11] and 102 % of control under setting [12].
Regarding `Nc1c(S(=O)(=O)O)cc(Nc2ccccc2)c2c1C(=O)c1ccccc1C2=O`, the T/C runs as follows: under setting [13], 121 % of control; under setting [14], 115 % of control; under setting [15], 115 % of control.
For the molecule `Ic1ncnc2c1ncn2C1CCCO1` (stereo not drawn), the T/C was 118 % of control under setting [4] and 104 % of control under setting [5].
In the case of `C#CCN(C)/N=N/c1nc[nH]c1C(N)=O`, the T/C (dose: 12.5 mg/kg/injection, schedule: Q01DX009 (ip), vehicle: saline with Tween-80) is 97 % of control; the T/C under setting [16] is 111 % of control; the T/C under setting [17] was 124 % of control.
On to `C[n+]1c(-c2cccc3ccccc23)c2cc(N)ccc2c2ccccc21`, for which the T/C runs as follows: (dose: 1.56 mg/kg/injection, schedule: Q01DX009 (ip), vehicle: water) 114 % of control; (dose: 3.12 mg/kg/injection, schedule: Q01DX009 (ip), vehicle: water) 106 % of control; (dose: 6.25 mg/kg/injection, schedule: Q01DX009 (ip), vehicle: water) 124 % of control; (dose: 12.5 mg/kg/injection, schedule: Q01DX009 (ip), vehicle: water) 94 % of control.
Turning to `CNC(=O)Nc1c(C)cccc1C`, the T/C under setting [4] was 96 % of control and the T/C under setting [5] is 100 % of control.
As to `COc1ccc2c(c1)N(CCCN(C)C)c1ccccc1S2`, the T/C was 102 % of control (dose: 2.34 mg/kg/injection, schedule: Q01DX009 (ip), vehicle: saline); 110 % of control (dose: 4.68 mg/kg/injection, schedule: Q01DX009 (ip), vehicle: saline); 102 % of control (dose: 18.75 mg/kg/injection, schedule: Q01DX009 (ip), vehicle: saline); 110 % of control (dose: 37.5 mg/kg/injection, schedule: Q01DX009 (ip), vehicle: saline).
Regarding `CN(Cc1ccccc1)Cc1ccccc1`, the T/C by setting is: under setting [2], 96 % of control; (dose: 25.0 mg/kg/injection, schedule: Q04DX003 (ip), vehicle: Klucel (hydroxypropylcellulose) (HPC)) 100 % of control; under setting [3], 100 % of control; (dose: 50.0 mg/kg/injection, schedule: Q04DX003 (ip), vehicle: Klucel (hydroxypropylcellulose) (HPC)) 97 % of control; under setting [4], 100 % of control; under setting [6], 97 % of control.
For `CC1(C)N=C(N)N=C(N)N1c1cccc(Cl)c1`, the T/C is 115 % of control (dose: 5.0 mg/kg/injection, schedule: Q01DX009 (ip), vehicle: saline); 115 % of control under setting [18]; 118 % of control (dose: 10.0 mg/kg/injection, schedule: Q04DX003 (ip), vehicle: saline); 120 % of control under setting [19]; 117 % of control (dose: 20.0 mg/kg/injection, schedule: Q04DX003 (ip), vehicle: saline); 120 % of control under setting [20].
Regarding `NCC(c1ccccc1)c1ccccc1`, the T/C by setting is: under setting [21], 100 % of control; under setting [13], 91 % of control; under setting [14], 91 % of control.
Consider `Cc1cccc(C)c1NC(=O)Nc1ccc(Cl)c(Cl)c1`, for which the T/C was 95 % of control (dose: 25.0 mg/kg/injection, schedule: Q01DX009 (ip), vehicle: other); 99 % of control (dose: 50.0 mg/kg/injection, schedule: Q01DX009 (ip), vehicle: other); 87 % of control and 103 % of control (dose: 100.0 mg/kg/injection, schedule: Q01DX009 (ip), vehicle: other).
`CC(=O)NCC1(c2ccccc2)CCN(CCCC(=O)c2ccc(F)cc2)CC1`: the T/C under setting [3] was 93 % of control and the T/C under setting [4] is 106 % of control.
Consider `O=c1[nH]c(=O)c2nc(-c3cccnc3)cnc2[nH]1`, for which the T/C under setting [21] is 104 % of control, the T/C under setting [13] was 93 % of control, the T/C under setting [14] was 97 % of control and the T/C under setting [15] was 89 % of control.
Consider `Cc1cc([N+](=O)[O-])c(Cl)cc1NS(=O)(=O)c1ccccc1`, for which the T/C under setting [16] is 95 % of control, the T/C under setting [17] was 93 % of control and the T/C under setting [10] was 90 % of control.
With `CC(C)C(NC(=O)C(N)CCC(=O)O)C(=O)O` (stereo not drawn) (H-Glu-Val-OH; configuration not given here), the T/C by setting is: under setting [17], 109 % of control; under setting [10], 104 % of control; under setting [11], 108 % of control; under setting [12], 98 % of control.
Regarding `CCOC(=O)CN=NNc1[nH]ncc1C(N)=O`, the T/C was 100 % of control (dose: 100.0 mg/kg/injection, schedule: Q04DX003 (ip), vehicle: saline with Tween-80); 104 % of control (dose: 200.0 mg/kg/injection, schedule: Q04DX003 (ip), vehicle: saline with Tween-80); 111 % of control (dose: 400.0 mg/kg/injection, schedule: Q04DX003 (ip), vehicle: saline with Tween-80).
For `CCC1CN2C(=N1)c1ccccc1-c1cc(Cl)ccc12` (stereo not drawn), the T/C (dose: 6.25 mg/kg/injection, schedule: Q01DX009 (ip), vehicle: suspension in saline) was 95 % of control; the T/C under setting [18] is 94 % of control; the T/C (dose: 12.5 mg/kg/injection, schedule: Q01DX009 (ip), vehicle: suspension in saline) was 109 % of control; the T/C under setting [19] is 118 % of control; the T/C under setting [20] was 150 % of control; the T/C (dose: 50.0 mg/kg/injection, schedule: Q01DX009 (ip), vehicle: suspension in saline) was 157 % of control.
Consider `O=P(NC12CC3CC(CC(C3)C1)C2)(N1CC1)N1CC1`, for which the T/C (dose: 4.4 mg/kg/injection, schedule: Q01DX009 (ip), vehicle: Klucel (hydroxypropylcellulose) (HPC)) is 100 % of control and the T/C (dose: 6.6 mg/kg/injection, schedule: Q01DX009 (ip), vehicle: Klucel (hydroxypropylcellulose) (HPC)) is 110 % of control.
In the case of `C/C(CCC(=O)O)=N\NC(N)=O`, the T/C by setting is: under setting [10], 88 % of control; under setting [11], 88 % of control; under setting [12], 100 % of control.
Consider `Cc1cc(C)cc(-n2nnc3ccccc3c2=O)c1`, for which the T/C is 108 % of control under setting [4]; 95 % of control under setting [6]; 100 % of control under setting [5]; 91 % of control under setting [7]; 86 % of control under setting [9]; 93 % of control under setting [8].
Regarding `CN(C)C=NC1CCC(C(C)(C)C)CC1` (stereo not drawn), the T/C was 89 % of control (dose: 6.25 mg/kg/injection, schedule: Q01DX009 (ip), vehicle: Klucel (hydroxypropylcellulose) (HPC)); 93 % of control under setting [1]; 86 % of control under setting [2].
Turning to `NCC(O)c1ccc(O)c(O)c1` (stereo not drawn), the T/C is 97 % of control and 105 % of control (dose: 1.56 mg/kg/injection, schedule: Q01DX009 (ip), vehicle: saline); 95 % of control and 107 % of control (dose: 3.12 mg/kg/injection, schedule: Q01DX009 (ip), vehicle: saline); 100 % of control and 106 % of control (dose: 6.25 mg/kg/injection, schedule: Q01DX009 (ip), vehicle: saline); 99 % of control and 102 % of control under setting [21].
As to `COc1ccc(N2C(=O)CC(Sc3ccccc3N)C2=O)cc1` (stereo not drawn), the T/C is, setting by setting: under setting [2], 94 % of control; under setting [3], 86 % of control; under setting [4], 97 % of control.
With `CC(C)c1ccc(C2CCCCC2O)cc1` (stereo not drawn), the T/C runs as follows: under setting [17], 94 % of control; under setting [10], 88 % of control.
For the molecule `Cc1ccc(NC(=O)c2ccc([N+](=O)[O-])cc2)cc1Cl`, the T/C was 109 % of control under setting [2], 99 % of control under setting [3] and 99 % of control under setting [4].
